Source: paper PMC9330389, “Bambus[4,6]urils as Dual Scaffolds for Multivalent Iminosugar Presentation and Ion Transport: Access to Unprecedented Glycosidase-Directed Anion Caging Agents” (Molecules, 2022)
Like-named read-outs stand apart in the source and are kept apart here.

Columns and labels:
Jack Bean α-mannosidase [1] = target: T1, Jack Bean α-mannosidase (Canavalia ensiformis, UniProt C0HJB3); experiment: Inhibition assays on Jack-Bean α-mannosidase (p-nitrophenyl-α-D-mannopyranoside hydrolysis, Dixon and Lineweaver–Burk); assay type: biochemical; conditions: for Ki: 0.2 M acetate buffer pH 5, 25-27 °C, for mixed inhibitors the first value of the cell (Ki); for rp/n (relative potency per inhitope): n = number of inhitope units; for Rp (relative potency): rp = Ki (monovalent reference)/Ki (neoglycocluster); for Ki': mixed inhibition, second value of the cell (Ki' in supplement)
T1 construct: purchased Sigma Aldrich, St. Louis, MO, USA
T1 sequence (C0HJB3 1-981): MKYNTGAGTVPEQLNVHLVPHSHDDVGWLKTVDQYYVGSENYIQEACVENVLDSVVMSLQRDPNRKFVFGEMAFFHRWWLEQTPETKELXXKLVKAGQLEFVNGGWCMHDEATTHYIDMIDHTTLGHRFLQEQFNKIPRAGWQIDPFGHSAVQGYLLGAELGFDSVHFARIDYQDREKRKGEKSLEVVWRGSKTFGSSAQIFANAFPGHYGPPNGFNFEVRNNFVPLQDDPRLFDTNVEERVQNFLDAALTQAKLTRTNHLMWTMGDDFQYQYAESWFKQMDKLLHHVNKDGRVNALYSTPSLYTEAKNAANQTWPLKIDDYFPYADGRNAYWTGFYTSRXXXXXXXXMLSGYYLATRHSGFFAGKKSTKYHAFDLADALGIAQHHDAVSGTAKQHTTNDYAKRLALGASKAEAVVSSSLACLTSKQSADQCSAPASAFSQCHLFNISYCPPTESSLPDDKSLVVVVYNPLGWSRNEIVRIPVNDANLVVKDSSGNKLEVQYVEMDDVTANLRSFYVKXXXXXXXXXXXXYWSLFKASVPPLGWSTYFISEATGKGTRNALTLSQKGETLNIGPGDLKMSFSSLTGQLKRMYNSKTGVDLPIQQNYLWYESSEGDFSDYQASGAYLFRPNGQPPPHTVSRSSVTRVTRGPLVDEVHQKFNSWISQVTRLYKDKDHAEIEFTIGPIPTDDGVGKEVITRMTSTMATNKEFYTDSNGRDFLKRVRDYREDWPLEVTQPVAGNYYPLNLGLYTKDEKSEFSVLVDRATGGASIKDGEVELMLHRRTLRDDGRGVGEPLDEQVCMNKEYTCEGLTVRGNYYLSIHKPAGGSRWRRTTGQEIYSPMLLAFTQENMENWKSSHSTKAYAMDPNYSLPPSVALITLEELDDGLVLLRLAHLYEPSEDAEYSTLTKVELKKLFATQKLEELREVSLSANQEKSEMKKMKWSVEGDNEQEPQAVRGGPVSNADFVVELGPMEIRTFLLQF
Description: p-nitrophenyl-α-D-mannopyranoside and α-mannosidase (EC 3.2.1.24, from Jack Bean) were purchased from Sigma Aldrich, St. Louis, MO, USA. Inhibition constants were determined spectrophotometrically by measuring the residual hydrolytic activities of the α-mannosidase against p-nitrophenyl-α-D-mannopyranoside in the presence and absence of an inhibitor. Each well was filled with a total volume of 100 µL, containing 0.2 M acetate buffer pH 5, inhibitor, substrate and enzyme. All kinetics were performed between 25 °C and 27 °C and started by enzyme addition. After 30–50 min of incubation, the reaction was quenched by addition of 100 µL of 1M Na2CO3. The absorbance of the resulting solution was determined at 405 nm. Ki values were determined in triplicate, using the Dixon and Lineweaver–Burk graphical methods within Microsoft Excel. Stock solutions of inhibitors were prepared with DMSO/buffer for final well DMSO content under 5%. The stability of the enzyme in the presence of the same concentrations of DMSO was controlled and enzyme activity was unaffected.

Jack Bean α-mannosidase [2] = target: T1, Jack Bean α-mannosidase; conditions: cited from earlier work

| SMILES | Inhibition Mode (Jack Bean α-mannosidase [1]) | Ki (Jack Bean α-mannosidase [1]) [µM] | rp/n (relative potency per inhitope) (Jack Bean α-mannosidase [1]) | Rp (relative potency) (Jack Bean α-mannosidase [1]) | Ki' (Jack Bean α-mannosidase [1]) [µM] | Ki (Jack Bean α-mannosidase [2]; monovalent C9 reference) [µM] | Inhibition Mode (Jack Bean α-mannosidase [2]; monovalent references) |
| --- | --- | --- | --- | --- | --- | --- | --- |
| O=C1N(Cc2cn(CCCCCCN3C[C@H](O)[C@@H](O)[C@H](O)[C@H]3CO)nn2)[C@H]2[C@@H](N1Cc1cn(CCCCCCN3C[C@H](O)[C@@H](O)[C@H](O)[C@H]3CO)nn1)N1CN3C(=O)N(CN4C(=O)N(CN5C(=O)N(CN2C1=O)[C@@H]1[C@H]5N(Cc2cn(CCCCCCN5C[C@H](O)[C@@H](O)[C@H](O)[C@H]5CO)nn2)C(=O)N1Cc1cn(CCCCCCN2C[C@H](O)[C@@H](O)[C@H](O)[C@H]2CO)nn1)[C@H]1[C@@H]4N(Cc2cn(CCCCCCN4C[C@H](O)[C@@H](O)[C@H](O)[C@H]4CO)nn2)C(=O)N1Cc1cn(CCCCCCN2C[C@H](O)[C@@H](O)[C@H](O)[C@H]2CO)nn1)[C@@H]1[C@H]3N(Cc2cn(CCCCCCN3C[C@H](O)[C@@H](O)[C@H](O)[C@H]3CO)nn2)C(=O)N1Cc1cn(CCCCCCN2C[C@H](O)[C@@H](O)[C@H](O)[C@H]2CO)nn1 [Compound 3, (DNJ-C6)8BU[4]] | competitive | 9.7 | 4 | 33 |  |  |  |
| O=C1N(Cc2cn(CCCCCCCCCN3C[C@H](O)[C@@H](O)[C@H](O)[C@H]3CO)nn2)C2C(N1Cc1cn(CCCCCCCCCN3C[C@H](O)[C@@H](O)[C@H](O)[C@H]3CO)nn1)N1CN3C(=O)N(CN4C(=O)N(CN5C(=O)N(CN2C1=O)C1C5N(Cc2cn(CCCCCCCCCN5C[C@H](O)[C@@H](O)[C@H](O)[C@H]5CO)nn2)C(=O)N1Cc1cn(CCCCCCCCCN2C[C@H](O)[C@@H](O)[C@H](O)[C@H]2CO)nn1)C1C4N(Cc2cn(CCCCCCCCCN4C[C@H](O)[C@@H](O)[C@H](O)[C@H]4CO)nn2)C(=O)N1Cc1cn(CCCCCCCCCN2C[C@H](O)[C@@H](O)[C@H](O)[C@H]2CO)nn1)C1C3N(Cc2cn(CCCCCCCCCN3C[C@H](O)[C@@H](O)[C@H](O)[C@H]3CO)nn2)C(=O)N1Cc1cn(CCCCCCCCCN2C[C@H](O)[C@@H](O)[C@H](O)[C@H]2CO)nn1 (stereo partly drawn) [Compound 4, (DNJ-C9)8BU[4]] | competitive | 0.71 | 33 | 265 |  |  |  |
| O=C1N(Cc2cn(CCCCCCCCCN3C[C@H](O)[C@@H](O)[C@H](O)[C@H]3CO)nn2)C2C(N1Cc1cn(CCCCCCCCCN3C[C@H](O)[C@@H](O)[C@H](O)[C@H]3CO)nn1)N1CN3C(=O)N(CN4C(=O)N(CN5C(=O)N(CN6C(=O)N(CN7C(=O)N(CN2C1=O)C1C7N(Cc2cn(CCCCCCCCCN7C[C@H](O)[C@@H](O)[C@H](O)[C@H]7CO)nn2)C(=O)N1Cc1cn(CCCCCCCCCN2C[C@H](O)[C@@H](O)[C@H](O)[C@H]2CO)nn1)C1C6N(Cc2cn(CCCCCCCCCN6C[C@H](O)[C@@H](O)[C@H](O)[C@H]6CO)nn2)C(=O)N1Cc1cn(CCCCCCCCCN2C[C@H](O)[C@@H](O)[C@H](O)[C@H]2CO)nn1)C1C5N(Cc2cn(CCCCCCCCCN5C[C@H](O)[C@@H](O)[C@H](O)[C@H]5CO)nn2)C(=O)N1Cc1cn(CCCCCCCCCN2C[C@H](O)[C@@H](O)[C@H](O)[C@H]2CO)nn1)C1C4N(Cc2cn(CCCCCCCCCN4C[C@H](O)[C@@H](O)[C@H](O)[C@H]4CO)nn2)C(=O)N1Cc1cn(CCCCCCCCCN2C[C@H](O)[C@@H](O)[C@H](O)[C@H]2CO)nn1)C1C3N(Cc2cn(CCCCCCCCCN3C[C@H](O)[C@@H](O)[C@H](O)[C@H]3CO)nn2)C(=O)N1Cc1cn(CCCCCCCCCN2C[C@H](O)[C@@H](O)[C@H](O)[C@H]2CO)nn1 (stereo partly drawn) [Compound 7, (DNJ-C9)12BU[6]] | competitive | 1.06 | 15 | 177 |  |  |  |
| CCCC[N+](CCCC)(CCCC)CCCC.O=C1N(Cc2cn(CCCCCCN3C[C@H](O)[C@@H](O)[C@H](O)[C@H]3CO)nn2)C2C(N1Cc1cn(CCCCCCN3C[C@H](O)[C@@H](O)[C@H](O)[C@H]3CO)nn1)N1CN3C(=O)N(CN4C(=O)N(CN5C(=O)N(CN6C(=O)N(CN7C(=O)N(CN2C1=O)C1C7N(Cc2cn(CCCCCCN7C[C@H](O)[C@@H](O)[C@H](O)[C@H]7CO)nn2)C(=O)N1Cc1cn(CCCCCCN2C[C@H](O)[C@@H](O)[C@H](O)[C@H]2CO)nn1)C1C6N(Cc2cn(CCCCCCN6C[C@H](O)[C@@H](O)[C@H](O)[C@H]6CO)nn2)C(=O)N1Cc1cn(CCCCCCN2C[C@H](O)[C@@H](O)[C@H](O)[C@H]2CO)nn1)C1C5N(Cc2cn(CCCCCCN5C[C@H](O)[C@@H](O)[C@H](O)[C@H]5CO)nn2)C(=O)N1Cc1cn(CCCCCCN2C[C@H](O)[C@@H](O)[C@H](O)[C@H]2CO)nn1)C1C4N(Cc2cn(CCCCCCN4C[C@H](O)[C@@H](O)[C@H](O)[C@H]4CO)nn2)C(=O)N1Cc1cn(CCCCCCN2C[C@H](O)[C@@H](O)[C@H](O)[C@H]2CO)nn1)C1C3N(Cc2cn(CCCCCCN3C[C@H](O)[C@@H](O)[C@H](O)[C@H]3CO)nn2)C(=O)N1Cc1cn(CCCCCCN2C[C@H](O)[C@@H](O)[C@H](O)[C@H]2CO)nn1.[Br-] (stereo partly drawn) [Compound 8, Br^−@(DNJ-C6)12BU[6].TBA^+] | mixed | 85.6 |  | 3.8 | 191 ± 37 |  |  |
| CCCn1cc(CCCCCCCCCN2C[C@H](O)[C@@H](O)[C@H](O)[C@H]2CO)nn1 [Compound 22] |  |  |  |  |  | 188 | competitive |

More lines, in order of falling Ki (Jack Bean α-mannosidase [1]), values ahead:

| Inhibition Mode (Jack Bean α-mannosidase [1]) | Ki (Jack Bean α-mannosidase [1]) [µM] | rp/n (relative potency per inhitope) (Jack Bean α-mannosidase [1]) | Rp (relative potency) (Jack Bean α-mannosidase [1]) | Ki' (Jack Bean α-mannosidase [1]) [µM] | SMILES | Ki (Jack Bean α-mannosidase [2]; monovalent C9 reference) [µM] | Inhibition Mode (Jack Bean α-mannosidase [2]; monovalent references) |
| --- | --- | --- | --- | --- | --- | --- | --- |
| mixed | 108 | < 1 | 3.0 | 162 ± 40 | CCCC[N+](CCCC)(CCCC)CCCC.O=C1N(Cc2cn(CCCCCCN3C[C@H](O)[C@@H](O)[C@H](O)[C@H]3CO)nn2)C2C(N1Cc1cn(CCCCCCN3C[C@H](O)[C@@H](O)[C@H](O)[C@H]3CO)nn1)N1CN3C(=O)N(CN4C(=O)N(CN5C(=O)N(CN6C(=O)N(CN7C(=O)N(CN2C1=O)C1C7N(Cc2cn(CCCCCCN7C[C@H](O)[C@@H](O)[C@H](O)[C@H]7CO)nn2)C(=O)N1Cc1cn(CCCCCCN2C[C@H](O)[C@@H](O)[C@H](O)[C@H]2CO)nn1)C1C6N(Cc2cn(CCCCCCN6C[C@H](O)[C@@H](O)[C@H](O)[C@H]6CO)nn2)C(=O)N1Cc1cn(CCCCCCN2C[C@H](O)[C@@H](O)[C@H](O)[C@H]2CO)nn1)C1C5N(Cc2cn(CCCCCCN5C[C@H](O)[C@@H](O)[C@H](O)[C@H]5CO)nn2)C(=O)N1Cc1cn(CCCCCCN2C[C@H](O)[C@@H](O)[C@H](O)[C@H]2CO)nn1)C1C4N(Cc2cn(CCCCCCN4C[C@H](O)[C@@H](O)[C@H](O)[C@H]4CO)nn2)C(=O)N1Cc1cn(CCCCCCN2C[C@H](O)[C@@H](O)[C@H](O)[C@H]2CO)nn1)C1C3N(Cc2cn(CCCCCCN3C[C@H](O)[C@@H](O)[C@H](O)[C@H]3CO)nn2)C(=O)N1Cc1cn(CCCCCCN2C[C@H](O)[C@@H](O)[C@H](O)[C@H]2CO)nn1.[I-] (stereo partly drawn) [Compound 9, I^-@(DNJ-C6)12BU[6].TBA^+] |  |  |
| competitive | 0.488 | 32 | 385 |  | CCCC[N+](CCCC)(CCCC)CCCC.O=C1N(Cc2cn(CCCCCCCCCN3C[C@H](O)[C@@H](O)[C@H](O)[C@H]3CO)nn2)C2C(N1Cc1cn(CCCCCCCCCN3C[C@H](O)[C@@H](O)[C@H](O)[C@H]3CO)nn1)N1CN3C(=O)N(CN4C(=O)N(CN5C(=O)N(CN6C(=O)N(CN7C(=O)N(CN2C1=O)C1C7N(Cc2cn(CCCCCCCCCN7C[C@H](O)[C@@H](O)[C@H](O)[C@H]7CO)nn2)C(=O)N1Cc1cn(CCCCCCCCCN2C[C@H](O)[C@@H](O)[C@H](O)[C@H]2CO)nn1)C1C6N(Cc2cn(CCCCCCCCCN6C[C@H](O)[C@@H](O)[C@H](O)[C@H]6CO)nn2)C(=O)N1Cc1cn(CCCCCCCCCN2C[C@H](O)[C@@H](O)[C@H](O)[C@H]2CO)nn1)C1C5N(Cc2cn(CCCCCCCCCN5C[C@H](O)[C@@H](O)[C@H](O)[C@H]5CO)nn2)C(=O)N1Cc1cn(CCCCCCCCCN2C[C@H](O)[C@@H](O)[C@H](O)[C@H]2CO)nn1)C1C4N(Cc2cn(CCCCCCCCCN4C[C@H](O)[C@@H](O)[C@H](O)[C@H]4CO)nn2)C(=O)N1Cc1cn(CCCCCCCCCN2C[C@H](O)[C@@H](O)[C@H](O)[C@H]2CO)nn1)C1C3N(Cc2cn(CCCCCCCCCN3C[C@H](O)[C@@H](O)[C@H](O)[C@H]3CO)nn2)C(=O)N1Cc1cn(CCCCCCCCCN2C[C@H](O)[C@@H](O)[C@H](O)[C@H]2CO)nn1.[Br-] (stereo partly drawn) [Compound 10, Br^-@(DNJ-C9)12BU[6].TBA^+] |  |  |
